Paper PMC12213745, “Compounds from Cyclocarya paliurus leaves inhibit binary division of methicillin-resistant Staphylococcus aureus by disrupting FtsZ dynamic” (Frontiers in Microbiology, 2025)
In brackets after ≈: the same amount, converted by molar mass. Where two headings read alike, the source gives them in different places.

Columns and labels:
E. coli ATCC25922 = test: MIC, broth microdilution (CLSI); type: cell-based; details: Escherichia coli
Text: (§1) Staphylococcus aureus ATCC25923 and Escherichia coli ATCC25922 were obtained from the American Type Culture Collection (ATCC, Manassas, VA, USA). The Methicillin-resistant S. aureus (MRSA) clinical isolate MRSA-4, previously confirmed as mecA-positive and characterized for its antibiotic resistance profile ([Sun et al., 2023]), was used in this study. Staphylococcus epidermidis (GDMCC 1.143), Enterococcus faecalis (GDMCC 1.164), and Salmonella enterica subsp. enterica (GDMCC 1.1114) were obtained from the Guangdong Microbial Culture Collection Center (GDMCC, Guangzhou, China). The Pseudomonas aeruginosa PA14 strain was kindly provided by Professor Min Wu (Southwest Medical University, China). All bacterial strains were routinely cultured in Mueller-Hinton broth (MHB) or Luria-Bertani (LB) broth medium at 37°C with shaking at 200 rpm. Vancomycin was purchased from Solarbio Science & Technology Co., Ltd. (Beijing, China), and oxacillin was obtained from Taiji Group Hengsheng Pharmaceutical Co., Ltd. (Chengdu, China). The polyclonal rabbit primary anti-body to FtsZ was purchased from Abcam PLC (Cambridge, UK). Alexa488-conjugated goat anti-rabbit IgG was purchased from ZSGB-BIO Biotechnology (Beijing, China). DAPI staining solution was purchased from Beyotime Biotechnology (Shanghai, China).
(§2) The minimum inhibitory concentrations (MICs) of the test compounds (AA, MA, and UA) were determined using the standard broth microdilution method in accordance with the Clinical and Laboratory Standards Institute (CLSI) guidelines ([Humphries et al., 2021]). Bacteria were cultured in MHB or LB broth at 37°C with shaking (200 rpm) to the logarithmic phase, then diluted to a final density of 1 × 10^6 CFU/mL. Test compounds (dissolved in DMSO) and positive controls (vancomycin and oxacillin) were diluted in MHB and serially twofold diluted in 96-well plates. Each well was inoculated with 100 μL of bacterial suspension (1 × 10^6 CFU/mL), yielding a final bacterial density of 5 × 10^5 CFU/mL and a total volume of 200 μL. The final concentrations tested were 128 to 1 μg/mL for AA, MA, and UA; 16 to 0.5 μg/mL for vancomycin; and 64 to 0.0625 μg/mL for oxacillin. DMSO was used as a solvent control. Plates were incubated statically at 37°C for 18–24 h. After incubation, the OD600 was measured using a microplate reader (SpectraMax i3x, Molecular Devices, CA, USA). The MIC was defined as the lowest compound concentration that caused ≥ 90% inhibition of bacterial growth compared to the drug-free growth control. All tests were performed in three independent biological replicates.
(§3) Following the isolation and identification of AA, MA, and UA from ECPL, we evaluated their antibacterial activity and spectrum. The MICs of the compounds were determined against MRSA-4, S. aureus ATCC25923, S. epidermidis, and E. faecalis (Gram-positive), as well as P. aeruginosa PA14, E. coli ATCC25922, and S. enterica subsp. Enterica (Gram-negative) using the standard broth microdilution method in accordance with CLSI guidelines ([Humphries et al., 2021]).

S. aureus ATCC25923 [1] = test: MIC, broth microdilution (CLSI); type: cell-based; details: Staphylococcus aureus
Text: as §1, §2, §3

P. aeruginosa PA14 = test: MIC, broth microdilution (CLSI); type: cell-based; details: Pseudomonas aeruginosa
Text: as §1, §2, §3

E. faecalis = test: MIC, broth microdilution (CLSI); type: cell-based; details: Enterococcus faecalis
Text: as §1, §2, §3

S. epidermidis (1.143) = test: MIC, broth microdilution (CLSI); type: cell-based; details: Staphylococcus epidermidis
Text: as §1, §2, §3

MRSA-4 [2] = test: MIC, broth microdilution (CLSI); type: cell-based, Methicillin-resistant S. aureus; details: Staphylococcus aureus
Text: as §1, §2, §3

[3] = system: S. enterica subsp. Enterica (1.1114); test: MIC, broth microdilution (CLSI); type: cell-based, Salmonella enterica subsp. enterica; details: Salmonella enterica
Text: as §1, §2, §3

MRSA-4 [4] = test: SEM analysis, cell long axis; type: cell-based, Methicillin-resistant S. aureus; details: 2 × MIC, 2 h, mean ± SD, PBS control 0.53 ± 0.04
Procedure: (§4) Scanning electron microscopy (SEM) was used to observe the morphological changes in bacterial cells treated with the isolated compounds. S. aureus ATCC 25923 and MRSA-4 were grown in MHB to mid-log phase (OD600 = 0.4–0.6) as previously described. The bacteria cultures were treated with AA, MA, or UA at 2 × MIC for 2 h at 37°C with shaking at 150 rpm. Untreated cultures (PBS group) served as the growth control. After incubation, bacterial cells were harvested by centrifugation and washed three times with PBS (pH 7.2). Coverslips (8 mm diameter) were cleaned with absolute ethanol under ultrasonication, air-dried, immersed in 0.1% (w/v) chitosan solution (dissolved in 1% acetic acid) for 5 s, and air-dried again at room temperature ([Su et al., 2022]). A 25 μL aliquot of the washed bacterial suspension was added to each coverslip and allowed to adhere for 1 h at room temperature. Adhered cells were fixed with 1 mL of 2.5% (v/v) glutaraldehyde at 4°C overnight. Fixed samples were rinsed 2–3 times with PBS (5 min per rinse), then dehydrated through a graded ethanol series: 50, 70, and 90% ethanol (each once for 5 min), followed by 100% ethanol (three times for 5 min each). After dehydration, samples were air-dried overnight at room temperature. SEM imaging was performed using an EVO 10 scanning electron microscope (Zeiss, Jena, Germany). Cell long-axis statistical analysis was conducted using ImageJ software (Version 1.42q, National Institutes of Health, MD, USA).
(§5) Having established the antibacterial activity of AA, MA, and UA, we next examined their effects on bacterial morphology. We employed SEM to examine the alterations induced by these compounds in S. aureus ATCC25923 and MRSA-4. Bacterial cultures were treated with AA, MA, or UA at 2 × MIC for 2 h, while untreated (PBS group) cultures served as negative controls. […] In PBS groups, both S. aureus ATCC25923 and MRSA-4 maintained typical spherical morphology with smooth and intact surfaces.

MRSA-4 [5] = test: Time-dependent killing assay; type: cell-based, Methicillin-resistant S. aureus; details: 2 × MIC
Procedure: An overnight culture of MRSA-4 was diluted 1:100 in fresh MHB and incubated at 37°C with shaking (200 rpm) until reaching mid-log phase (OD600 = 0.4–0.6). The culture was then adjusted to 1 × 10^6 CFU/mL and treated with AA, MA, or UA at concentrations of 1×, 2×, and 4 × MIC. 2 × MIC of vancomycin was used as a positive control, and an equivalent volume of DMSO served as the negative control. The cultures were incubated at 37°C with shaking (200 rpm) during the assay. At designated time points (0, 1, 2, 4, 8, and 24 h), samples were collected, serially diluted tenfold in sterile PBS, and 100 μL of appropriate dilutions were plated on LB agar. Plates were incubated at 37°C for 18–24 h, and viable bacteria were quantified. All experiments were performed in biological triplicates.
We next performed time-kill kinetics assays to characterize the time-dependent antibacterial effects of AA, MA, and UA against MRSA-4. Bacterial cultures were exposed to AA, MA, and UA at 1×, 2×, and 4 × their respective MICs, and viable CFU were counted at designated time points (0, 1, 2, 4, 8, and 24 h). As shown in the time-kill curves (Figure 1), treatment with 1 × or 2 × MIC of AA, MA, or UA led to an initial reduction in bacterial load within the first 2 h.

S. aureus ATCC25923 [6] = test: SEM analysis, cell long axis; type: cell-based, Staphylococcus aureus; details: 2 × MIC, 2 h, mean ± SD, PBS control 0.52 ± 0.05
Procedure: as §4, §5

SMILES | MIC (E. coli ATCC25922; E. coli ATCC25922, ≥ 90% growth inhibition, 18–24 h, read-out: MIC) | MIC (S. aureus ATCC25923 [1]; S. aureus ATCC25923, ≥ 90% growth inhibition, 18–24 h, read-out: MIC) | MIC (P. aeruginosa PA14; P. aeruginosa PA14, ≥ 90% growth inhibition, 18–24 h, read-out: MIC) | MIC (E. faecalis; E. faecalis, ≥ 90% growth inhibition, 18–24 h, read-out: MIC) | MIC (S. epidermidis (1.143); S. epidermidis (1.143), ≥ 90% growth inhibition, 18–24 h, read-out: MIC) | MIC (MRSA-4 [2]; MRSA-4, ≥ 90% growth inhibition, 18–24 h, read-out: MIC) | MIC ([3]; S. enterica subsp. Enterica (1.1114), ≥ 90% growth inhibition, 18–24 h, read-out: MIC) | length of long axis of cells (MRSA-4 [4]) | MIC (E. coli ATCC25922; ATCC25922) | MIC (S. aureus ATCC25923 [1]; ATCC25923) | MIC (P. aeruginosa PA14; PA14) | MIC (E. faecalis) | MIC (S. epidermidis (1.143)) | time to reduce bacterial counts below the detection limit (MRSA-4 [5]) | MIC (MRSA-4 [2]; MRSA) | MIC [3] | length of long axis of cells (S. aureus ATCC25923 [6])
Cc1onc(-c2ccccc2)c1C(=O)N[C@@H]1C(=O)N2[C@@H]1SC(C)(C)[C@@H]2C(=O)O [Oxa, Oxacillin, reference compound] | > 64 µg/mL | 0.125 µg/mL (≈ 0.311 µM) | > 64 µg/mL | 8 µg/mL (≈ 19.9 µM) | 0.25 µg/mL (≈ 0.623 µM) | 64 µg/mL (≈ 159 µM) | > 64 µg/mL |  |  |  |  |  |  |  |  |  | 
CN[C@H](CC(C)C)C(=O)N[C@H]1C(=O)N[C@@H](CC(N)=O)C(=O)N[C@H]2C(=O)N[C@H]3C(=O)N[C@H](C(=O)N[C@H](C(=O)O)c4cc(O)cc(O)c4-c4cc3ccc4O)[C@H](O)c3ccc(c(Cl)c3)Oc3cc2cc(c3O[C@@H]2O[C@H](CO)[C@@H](O)[C@H](O)[C@H]2O[C@H]2C[C@](C)(N)[C@H](O)[C@H](C)O2)Oc2ccc(cc2Cl)[C@H]1O [Van, Vancomycin, reference compound] |  |  |  |  |  |  |  | 0.57 ± 0.06 μm | > 16 µg/mL | 2 µg/mL (≈ 1.38 µM) | > 16 µg/mL | 1 µg/mL (≈ 0.69 µM) | 2 µg/mL (≈ 1.38 µM) | ≤ 8 h | 2 µg/mL (≈ 1.38 µM) | > 16 µg/mL | 0.61 ± 0.06 μm
